Reference: ChEMBL document CHEMBL4814018, “Rationally designed TNF-α inhibitors: Identification of promising cytotoxic agents” (Bioorg Med Chem Lett, 2021)
The source made the active and inactive calls. The rule behind the calls is not given here.

What was measured:
BV-2 [1] = experiment: Cytotoxicity against mouse BV2 cells incubated for 48 hrs by MTT assay; type: cell-based; settings: BV-2, 48 h
HCT-116 = experiment: Growth inhibition of human HCT-116 cells at 10 uM incubated for 48 hrs by sulforhodamine B assay relative to control; type: functional; settings: read-out: GI
MDA-MB-231 = experiment: Growth inhibition of human MDA-MB-231 cells at 10 uM incubated for 48 hrs by sulforhodamine B assay relative to control; type: functional; settings: read-out: GI
SW-620 = experiment: Growth inhibition of human SW-620 cells at 10 uM incubated for 48 hrs by sulforhodamine B assay relative to control; type: functional; settings: read-out: GI
BV-2 [2] = experiment: Antiinflammatory activity against mouse BV2 cells assessed as reduction in LPS-induced IL6 production at 1 uM by enzyme immunoassay; type: functional, cell-based
BV-2 [3] = experiment: Antiinflammatory activity against mouse BV2 cells assessed as inhibition of LPS-induced TNFalpha production at 1 uM by enzyme immunoassay; type: functional
RPMI-8226 = experiment: Growth inhibition of human RPMI8226 cells at 10 uM incubated for 48 hrs by sulforhodamine B assay relative to control; type: functional; settings: read-out: GI
K562 = experiment: Growth inhibition of human K562 cells at 10 uM incubated for 48 hrs by sulforhodamine B assay relative to control; type: functional; settings: read-out: GI
CAKI-1 = experiment: Growth inhibition of human CAKI-1 cells at 10 uM incubated for 48 hrs by sulforhodamine B assay relative to control; type: functional; settings: read-out: GI
BV-2 [4] = experiment: Antiinflammatory activity against mouse BV2 cells assessed as decrease in LPS-induced NO production at 1 to 5 uM pretreated with compound followed by LPS stimulation incubated for 4 to 48 hrs by enzyme immunoassay; type: functional, cell-based; settings: dose 1-5 µM, time 4-48 hrs
MCF7 = experiment: Growth inhibition of human MCF7 cells at 10 uM incubated for 48 hrs by sulforhodamine B assay relative to control; type: functional; settings: read-out: GI
SR = experiment: Growth inhibition of human SR cells at 10 uM incubated for 48 hrs by sulforhodamine B assay relative to control; type: functional; settings: read-out: GI
OVCAR-3 = experiment: Growth inhibition of human OVCAR-3 cells at 10 uM incubated for 48 hrs by sulforhodamine B assay relative to control; type: functional; settings: read-out: GI

C=CCn1cc(C2C(Cl)C(=O)N2c2ccc(N3CCOCC3=O)cc2)c2ccccc21 (stereo not given)
IC50 (BV-2 [1]): > 10 µM

Cc1ccc(S(=O)(=O)n2cc(C3C(Cl)C(=O)N3c3ccc(N4CCOCC4=O)cc3)c3ccccc32)cc1 (stereo not given)
inhibition of growth at 10 µM (HCT-116): 83% | inhibition of growth at 10 µM (MDA-MB-231): 83% | inhibition of growth at 10 µM (SW-620): 74% | Activity (BV-2 [2]): Active | IC50 (BV-2 [1]): > 10 µM | Activity (BV-2 [3]): Active | inhibition of growth at 10 µM (RPMI-8226): 78% | inhibition of growth at 10 µM (K562): 77% | inhibition of growth at 10 µM (CAKI-1): 75% | Activity (BV-2 [4]): Active | inhibition of growth at 10 µM (MCF7): 80% | inhibition of growth at 10 µM (SR): 75% | inhibition of growth at 10 µM (OVCAR-3): 70%

O=C1COCCN1c1ccc(N2C(=O)C(Cl)C2c2cn(Cc3ccc(Cl)cc3)c3ccccc23)cc1 (stereo not given)
IC50 (BV-2 [1]): > 10 µM
